Source: PubChem BioAssay (NCI)
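Assay format: 96-well plates, 48-hour exposure. TGI: total growth inhibition.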

What was measured:
Test in all cases: NCI tumour cell line growth inhibition, 48 h
SK-MEL-5 melanoma = system: SK-MEL-5 melanoma
NCI-H23 lung = system: NCI-H23 lung
NCI-H522 lung = system: NCI-H522 lung
UACC-62 melanoma = system: UACC-62 melanoma
HOP-92 NSCLC = system: HOP-92 NSCLC
HOP-62 NSCLC = system: HOP-62 NSCLC
UO-31 renal = system: UO-31 renal
SN12C renal = system: SN12C renal
COLO 205 colon = system: COLO 205 colon
A498 renal = system: A498 renal
EKVX NSCLC = system: EKVX NSCLC

Work on `O=c1c2cc([N+](=O)[O-])ccc2[nH]n1Cc1ccccc1Cl` yielded a TGI (SK-MEL-5 melanoma) greater than 100 µM, a TGI (NCI-H23 lung) greater than 100 µM and a TGI (NCI-H522 lung) greater than 100 µM. For the same compound, the TGI (UACC-62 melanoma) was greater than 100 µM, the TGI (HOP-92 NSCLC) was 93.9 µM and the TGI (HOP-62 NSCLC) was greater than 100 µM. It also gave a TGI (UO-31 renal) greater than 100 µM, a TGI (SN12C renal) greater than 100 µM and a TGI (COLO 205 colon) greater than 100 µM. The TGI (A498 renal) was greater than 100 µM and the TGI (EKVX NSCLC) was greater than 100 µM.
`O=C1Sc2sc(=S)sc2SC1c1ccccc1` (centres undefined) gave a TGI (SK-MEL-5 melanoma) greater than 100 µM, a TGI (NCI-H23 lung) greater than 100 µM and a TGI (NCI-H522 lung) of 19.5 µM. For the same compound, the TGI (UACC-62 melanoma) was 57.2 µM, the TGI (HOP-92 NSCLC) was greater than 82.4 µM and the TGI (HOP-62 NSCLC) was greater than 100 µM. For the same compound, the TGI (UO-31 renal) was greater than 86.7 µM, the TGI (SN12C renal) was greater than 100 µM and the TGI (COLO 205 colon) was greater than 63.6 µM. The TGI (A498 renal) was greater than 100 µM and the TGI (EKVX NSCLC) was greater than 100 µM.
`Cc1ccnn1CCc1ccc(Cl)cc1Cl` was tested, and the TGI (SK-MEL-5 melanoma) was 37.7 µM, the TGI (NCI-H23 lung) was greater than 100 µM and the TGI (UACC-62 melanoma) was 29.1 µM. The TGI (HOP-62 NSCLC) was 32.5 µM, the TGI (UO-31 renal) was 46.3 µM and the TGI (SN12C renal) was greater than 100 µM. The TGI (COLO 205 colon) was greater than 100 µM and the TGI (EKVX NSCLC) was 20.7 µM.
Work on `COc1cccc(/C=N/[N+](C)(C)C)c1O` yielded a TGI (SK-MEL-5 melanoma) greater than 10 µM, a TGI (NCI-H23 lung) greater than 10 µM and a TGI (NCI-H522 lung) greater than 10 µM. It also gave a TGI (UACC-62 melanoma) greater than 10 µM, a TGI (HOP-62 NSCLC) greater than 10 µM and a TGI (UO-31 renal) greater than 10 µM. It also gave a TGI (SN12C renal) greater than 10 µM, a TGI (COLO 205 colon) greater than 10 µM and a TGI (A498 renal) greater than 10 µM. The TGI (EKVX NSCLC) was greater than 10 µM.
With `CC1=CC2=C(C=O)C(=O)[C@](C)(O)[C@@H](O)C2=CO1` the TGI (SK-MEL-5 melanoma) was 68.1 µM, the TGI (NCI-H23 lung) was greater than 100 µM and the TGI (NCI-H522 lung) was 38.5 µM. The TGI (UACC-62 melanoma) was 71.5 µM, the TGI (HOP-92 NSCLC) was greater than 100 µM and the TGI (HOP-62 NSCLC) was 69 µM. The TGI (UO-31 renal) was 43.8 µM, the TGI (SN12C renal) was greater than 100 µM and the TGI (COLO 205 colon) was greater than 82 µM. It also gave a TGI (A498 renal) of 73.5 µM and a TGI (EKVX NSCLC) greater than 100 µM.
`CS(C)(=O)=Nn1c(=O)n2n(c1=O)[C@H]1CC[C@@H]2C1` was tested, and the TGI (SK-MEL-5 melanoma) was greater than 100 µM, the TGI (NCI-H23 lung) was greater than 100 µM and the TGI (NCI-H522 lung) was greater than 100 µM. It also gave a TGI (UACC-62 melanoma) greater than 100 µM, a TGI (HOP-92 NSCLC) greater than 100 µM and a TGI (HOP-62 NSCLC) greater than 100 µM. It also gave a TGI (UO-31 renal) greater than 100 µM, a TGI (COLO 205 colon) greater than 100 µM and a TGI (A498 renal) greater than 100 µM. It also gave a TGI (EKVX NSCLC) greater than 100 µM.
Work on `Cc1c2cnccc2c(C)c2c1c1ccccc1n2CCCCCCCl` yielded a TGI (SK-MEL-5 melanoma) greater than 50 µM, a TGI (NCI-H23 lung) greater than 50 µM and a TGI (NCI-H522 lung) greater than 50 µM. It also gave a TGI (UACC-62 melanoma) greater than 50 µM, a TGI (HOP-92 NSCLC) greater than 50 µM and a TGI (HOP-62 NSCLC) greater than 50 µM. It also gave a TGI (UO-31 renal) greater than 50 µM, a TGI (SN12C renal) greater than 50 µM and a TGI (COLO 205 colon) greater than 34.1 µM. It also gave a TGI (A498 renal) greater than 50 µM and a TGI (EKVX NSCLC) greater than 50 µM.
In the case of `COc1ccc2[nH]c(=O)cc(C)c2c1[N+](=O)[O-]`, the TGI (SK-MEL-5 melanoma) was greater than 100 µM, the TGI (NCI-H23 lung) was greater than 100 µM and the TGI (NCI-H522 lung) was greater than 100 µM. It also gave a TGI (UACC-62 melanoma) greater than 100 µM, a TGI (HOP-92 NSCLC) greater than 100 µM and a TGI (HOP-62 NSCLC) greater than 100 µM. For the same compound, the TGI (UO-31 renal) was greater than 100 µM, the TGI (SN12C renal) was greater than 100 µM and the TGI (COLO 205 colon) was greater than 100 µM. The TGI (A498 renal) was greater than 100 µM and the TGI (EKVX NSCLC) was greater than 100 µM.
`O=C(O)C(C1NCCS1)N1C(=O)c2ccccc2C1=O` (centres undefined) gave a TGI (SK-MEL-5 melanoma) greater than 100 µM, a TGI (NCI-H23 lung) greater than 100 µM and a TGI (NCI-H522 lung) greater than 100 µM. It also gave a TGI (UACC-62 melanoma) greater than 100 µM, a TGI (HOP-92 NSCLC) greater than 100 µM and a TGI (HOP-62 NSCLC) greater than 100 µM. For the same compound, the TGI (UO-31 renal) was greater than 100 µM, the TGI (SN12C renal) was greater than 100 µM and the TGI (COLO 205 colon) was greater than 100 µM. It also gave a TGI (A498 renal) greater than 100 µM and a TGI (EKVX NSCLC) greater than 100 µM.
